In publication PMC12303383, “The heme-regulated inhibitor kinase Hri1 is activated in response to aminolevulinic acid deficiency in Schizosaccharomyces pombe” (PLOS Genetics, 2025) one finds Kd data, which are given here for 1 compound.

Assay [1] addresses T1, Hri2 (Schizosaccharomyces pombe, UniProt Q9UTE5).
T1 construct: MBP-tagged wild-type Hri2 expressed in E. coli, dephosphorylated with lambda phosphatase
T1 sequence (Q9UTE5 1-639): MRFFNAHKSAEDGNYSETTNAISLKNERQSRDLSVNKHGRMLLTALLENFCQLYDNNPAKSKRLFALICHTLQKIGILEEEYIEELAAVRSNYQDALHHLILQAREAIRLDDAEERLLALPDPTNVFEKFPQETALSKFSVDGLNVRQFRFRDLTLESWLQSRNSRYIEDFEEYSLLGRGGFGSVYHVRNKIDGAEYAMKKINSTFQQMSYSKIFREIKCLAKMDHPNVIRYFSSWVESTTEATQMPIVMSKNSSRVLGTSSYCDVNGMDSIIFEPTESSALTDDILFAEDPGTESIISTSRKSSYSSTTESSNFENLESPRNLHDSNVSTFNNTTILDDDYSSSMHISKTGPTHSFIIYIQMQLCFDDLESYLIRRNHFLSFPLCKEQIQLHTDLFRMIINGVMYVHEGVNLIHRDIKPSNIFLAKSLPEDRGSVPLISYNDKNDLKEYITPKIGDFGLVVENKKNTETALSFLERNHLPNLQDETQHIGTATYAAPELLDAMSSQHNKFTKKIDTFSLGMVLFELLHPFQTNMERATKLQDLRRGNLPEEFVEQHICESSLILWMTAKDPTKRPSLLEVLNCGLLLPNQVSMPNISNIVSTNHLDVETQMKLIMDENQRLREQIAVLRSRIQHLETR
The assay is described as follows: differential absorbance spectral titration (Soret peak, […] nm) with purified protein. In kind it is binding.

Assay [2] addresses T2, Hri1 (heme-regulated inhibitor kinase 1) (Schizosaccharomyces pombe, UniProt O13889).
T2 construct: MBP-tagged wild-type Hri1 expressed in E. coli, dephosphorylated with lambda phosphatase
T2 sequence (O13889 1-704): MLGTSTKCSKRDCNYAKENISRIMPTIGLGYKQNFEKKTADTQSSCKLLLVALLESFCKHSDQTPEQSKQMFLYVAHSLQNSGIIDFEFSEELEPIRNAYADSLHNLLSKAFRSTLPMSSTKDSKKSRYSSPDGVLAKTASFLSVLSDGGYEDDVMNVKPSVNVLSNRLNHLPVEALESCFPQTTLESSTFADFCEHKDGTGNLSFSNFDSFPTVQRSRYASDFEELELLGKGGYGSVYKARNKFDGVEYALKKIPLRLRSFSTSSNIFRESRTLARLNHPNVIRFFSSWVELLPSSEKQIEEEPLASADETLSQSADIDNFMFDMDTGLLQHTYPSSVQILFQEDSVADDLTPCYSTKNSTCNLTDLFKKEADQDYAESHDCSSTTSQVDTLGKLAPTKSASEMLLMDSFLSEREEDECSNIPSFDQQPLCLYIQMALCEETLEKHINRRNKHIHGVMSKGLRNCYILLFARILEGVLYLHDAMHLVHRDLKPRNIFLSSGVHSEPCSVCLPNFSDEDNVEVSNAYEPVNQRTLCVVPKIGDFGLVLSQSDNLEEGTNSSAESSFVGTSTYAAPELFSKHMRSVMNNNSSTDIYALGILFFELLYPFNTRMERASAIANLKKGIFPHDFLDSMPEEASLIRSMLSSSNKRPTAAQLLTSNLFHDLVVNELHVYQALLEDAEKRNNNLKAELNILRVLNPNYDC
Described as above. In kind it is binding.

One may read the Kd as the constant that tells how readily two partners part at equilibrium. `C=CC1=C(C)C2=Cc3c(C=C)c(C)c4[n]3[Fe]([Cl])[n]3c(c(C)c(CCC(=O)O)c3=CC3=NC(=C4)C(C)=C3CCC(=O)O)=CC1=N2` [hemin]: the Kd in assay [1] was 1050 nM; in assay [2] it was 110 nM.
